According to US8962664B2, “Selective glycosidase inhibitors and uses thereof” (Simon Fraser University, priority 2006, dated 2015):

Legend:
Type in all cases: in vivo, Sprague-Dawley rats
[1] = tested on: levels of O-GlcNAc modification in brain and muscle tissue; experiment: Dose-dependent elevation of rat brain and muscle O-GlcNAc levels (IV); conditions: rats, seven hours
Experimental: The effect of intravenous (IV) administration of (3aR,5R,6S,7R,7aR)-5-(hydroxymethyl)-2-propyl-5,6,7,7a-tetrahydro-3aH-pyrano[3,2-d]thiazole-6,7-diol (Compound 54; hereinafter referred to as NAG-Bt) on levels of O-GlcNAc modification in brain and muscle tissue in Sprague-Dawley rats was measured. Animals were obtained from Charles-River as 5-week old healthy male Sprague-Dawley rats. Animals were given one week to acclimatize and at six weeks of age the appropriate treatment was initiated. Eight animals were given intravenous tail vein injections of various concentrations of NAG-Bt or vehicle alone (PBS); doses of NAG-Bt included 0, 2, 5, 10, 25, 50, 100, and 250 mg/kg. Seven hours later animals were sacrificed and tissues were removed from animals as quickly as possible to minimize post-mortem delay. Tissues were immediately frozen in liquid nitrogen and stored at −80° C. until further use. Homogenization of the tissues was carried out by manual grinding followed by homogenization in cell lysis buffer (50 mM Tris, pH 8.0, 1 mM PMSF, 0.1% NP-40, 1 mM NAG-Bt) using a tissue homogenizer (IKA) at 4° C. Insoluble cell debris was removed by centrifugation at 17,900×g for 20 minutes at 4° C. and the resulting supernatant was stored at −20° C. until use.
Western blotting of the samples thus obtained was carried out using the α-O-GlcNAc antibody (CTD110.6; Covance) and the α-actin antibody as described previously.^106 Equal amounts of homogenized brain and muscle tissue from animals treated with NAG-Bt or vehicle alone were separated by SDS-PAGE followed by probing with the primary a-O-GlcNAc antibody and an anti-IgM-mouse IgG-HRP conjugate. […] FIGS. 1C and 1D are Western blots of samples loaded in the upper panels (FIGS. 1A and 1B) probed using anti-β-actin mAb clone AC-40 followed by an anti-mouse IgG-HRP conjugate, and reveal equivalent sample loading.

[2] = tested on: tau phosphorylation levels in brain tissue; experiment: Decrease of rat brain tau phosphorylation levels (NAG-Bt); conditions: rats, 100 mg/kg/day in food for five days then 50 mg/kg IV, Western blot
Experimental: The effect of oral administration of NAG-Bt on tau phosphorylation levels in brain tissue in Sprague-Dawley rats was measured. All animals were obtained from Charles-River as 5-week old healthy male Sprague-Dawley rats. Animals were given one week to acclimatize and at six weeks of age the appropriate treatment was initiated. Four animals were fed food containing 100 mg/kg/day of NAG-Bt for five days. Four additional animals fed with food containing no inhibitor were used as controls. At the end of five days, the animals were fasted for 11 hours, then the four animals that received NAG-Bt in food were each given an intravenous tail vein injection of 50 mg/kg NAG-Bt. All animals were fasted for a further 5 hours, then they were sacrificed and brains were removed, stored, and processed as described in Example 29.
Western blotting of the samples thus obtained was carried out using the α-O-GlcNAc antibody (CTD110.6; Covance) and a-Actin antibody as described previously.^106 For Tau blotting, pS199, pS214, pS217, pS262, pS396, and pS422 (Biosource), Tau-5 (Lab Vision; a non-PTM dependent tau antibody), Tau-1 (Chemicon; selective for nonphosphorylated Ser195, Ser198, Ser199, and Ser202), and pS404 (Sigma) antibodies were used according to the manufacturer's protocols. Equal amounts of homogenized brain tissue from an animal treated with and without NAG-Bt were separated by SDS-PAGE followed by probing with each of the primary antibodies and an appropriate secondary antibody (either an anti-mouse or anti-rabbit IgG-HRP conjugate, as appropriate). The resulting Western blots are shown in FIGS. 2A-I, and reveal decreases of brain tau phosphorylation at multiple sites following treatment with NAG-Bt; lanes labeled “+” indicate samples from animals receiving NAG-Bt, while lanes labeled “-” indicate samples from animals receiving vehicle alone.

[3] = Eight-month repeat dose toxicology study in rats: hematology (CBC) and serum chemistry
Experimental: (§1) The toxicological effects of repeated oral administration of (3aR,5R,6S,7R,7aR)-5-(hydroxymethyl)-2-propyl-5,6,7,7a-tetrahydro-3aH-pyrano[3,2-d]thiazole-6,7-diol (NAG-Bt) to Sprague-Dawley rats over eight months was measured. All animals were obtained from Charles-River as 5-week old healthy male Sprague-Dawley rats. Animals were given one week to acclimatize and at six weeks of age the appropriate treatment was initiated. Eight animals were fed food containing 100 mg/kg/day of NAG-Bt for eight months. Eight additional animals fed with food containing no inhibitor were used as controls. […] After four months of dosing, blood and urine samples were collected from four rats in each group.

[4] = Eight-month repeat dose toxicology study in rats: general observations and organ weights
Experimental: as §1
At the end of eight months, all animals were sacrificed and their organs removed and weighed.

[5] = IV 250 mg/kg, densitometry of Western blot
[6] = rat, in vivo, po, 100 mg/kg/day

SMILES: CCCC1=N[C@@H]2[C@@H](O)[C@H](O)[C@@H](CO)O[C@@H]2S1 [NAG-Bt, (3aR,5R,6S,7R,7aR)-5-(hydroxymethyl)-2-propyl-5,6,7,7a-tetrahydro-3aH-pyrano[3,2-d]thiazole-6,7-diol]
- O-GlcNAc levels in brain and muscle tissue ([1]; IV 0 to 250 mg/kg, Western blot): dose-dependent elevation
- elevation of O-GlcNAc levels over baseline in brain tissue [1, 5]: roughly 25 fold
- elevation of O-GlcNAc levels over baseline in muscle tissue [1, 5]: roughly 10 fold
- minimum IV dose required for an observable effect in brain ([1]; IV, O-GlcNAc levels): roughly 5 mg/kg
- brain tau phosphorylation at Ser214 and Ser404 [2]: increases phosphorylation
- brain tau phosphorylation at Thr231 and Ser396 [2]: essentially blocks phosphorylation
- brain tau phosphorylation at the Tau-1 epitope (Ser195, Ser198, Ser199, Ser202), Ser199, Ser262, Ser396, Ser422, and Thr231 [2]: decreases in phosphorylation
- ALT [3, 6]: 109.3 iu/l
- AST [3, 6]: 202.3 iu/l
- Albumin [3, 6]: 47.8 g/L
- Albumin/Globulin [3, 6]: 1.6
- Alkaline phsphatase [3, 6]: 168.3 iu/l
- Anion Gap [3, 6]: 29.8 mM
- Bilirubin total [3, 6]: 0.0 µM
- Blood Urea Nitrogen [3, 6]: 8.9 mM
- Calcium [3, 6]: 2.7 mM
- Carbon Dioxide [3, 6]: 17.5 mM
- Chloride [3, 6]: 104.5 mM
- Cholesterol [3, 6]: 2.9 mM
- Creatine Phosphokinase [3, 6]: 1324.5 iu/l
- Creatinine [3, 6]: 29.0 µM
- Gamma gt [3, 6]: 17.5 iu/l
- Globulin [3, 6]: 30.3 g/L
- Glucose [3, 6]: 2.0 mM
- Hematocrit [3, 6]: 0.5 l/l
- Hemoglobin [3, 6]: 169.5 g/L
- Lymphs % [3, 6]: 82.3%
- Mean Corp Hemoglobin [3, 6]: 16.9 pg
- Mean Corp Vol. [3, 6]: 53.3 fL
- Mean Platelet Vol [3, 6]: 9.3 fL
- Monocytes % [3, 6]: 4.3%
- Nonesterified Fatty Acids [3, 6]: 1.8 mM
- Osmolality [3, 6]: 292.9 mmol/kg
- Phosphorus [3, 6]: 2.2 mM
- Platelet cnt [3, 6]: 561.8 10e9/L
- Polys % [3, 6]: 10.8%
- Potassium [3, 6]: 5.9 mM
- RDW [3, 6]: 17.4
- Red cell cnt [3, 6]: 10.1 10^12/L
- Sodium [3, 6]: 145.8 mM
- Sorbitol Dehydrogenase [3, 6]: 22.3 iU/L
- Total Protein [3, 6]: 78.0 g/L
- Triglyceride [3, 6]: 2.7 mM
- White cell cnt [3, 6]: 3.8 1e9/l
- hematology (CBC), serum chemistry and urinalysis: differences between groups [3, 6]: no statistically significant differences
- changes in ALT, AST, bilirubin or sorbitol dehydrogenase (liver toxicity) ([3]; rats, oral 100 mg/kg/day, four months): no changes
- body weight, food consumption, water consumption, and blood glucose levels [4, 6]: no significant differences
- gross pathological abnormalities or behavioural differences [4, 6]: No gross pathological abnormalities or behavioural differences
- toxicological consequences of long-term dosing ([4]; rats, oral 100 mg/kg/day, eight months): no serious toxicological consequences
